In patent US20070293553A1, “Diphenylurea Derivatives Useful As Potassium Channel Activators” (priority 2004, published 2007):

Row | melting point | SMILES
1 | 261 to 263 °C | Cc1ccc(-c2ccc(NC(=O)Nc3ccccc3Cl)c(-c3nnn[nH]3)c2)cc1 [Compound 3-28, N-(2-Chloro-phenyl)-N′-[4′-methyl-3-(1H-tetrazol-5-yl)-biphenyl-4-yl]-urea]
2 | 255 to 257 °C | Cc1ccc(-c2ccc(NC(=O)Nc3ccccc3Br)c(-c3nnn[nH]3)c2)cc1 [Compound 3-29, N-(2-Bromo-phenyl)-N′-[4′-methyl-3-(1H-tetrazol-5-yl)-biphenyl-4-yl]-urea]
3 | 259 to 261 °C | Cc1ccc(-c2ccc(NC(=O)Nc3ccccc3C(F)(F)F)c(-c3nnn[nH]3)c2)cc1 [Compound 3-30, N-(2-Trifluoromethyl-phenyl)-N′-[4′-methyl-3-(1H-tetrazol-5-yl)-biphenyl-4-yl]-urea]
4 | 254 to 255 °C | O=C(Nc1ccccc1Cl)Nc1ccc(-c2ccc(C(F)(F)F)cc2)cc1-c1nnn[nH]1 [Compound 3-31, N-(2-Chloro-phenyl)-N′-[3-(1H-tetrazol-5-yl)-4′-trifluoromethyl-biphenyl-4-yl]-urea]
5 | 255 to 257 °C | O=C(Nc1ccccc1Cl)Nc1ccc(-c2ccc(Cl)cc2)cc1-c1nnn[nH]1 [Compound 3-32, N-(2-Chloro-phenyl)-N′-[4′-chloro-3-(1H-tetrazol-5-yl)-biphenyl-4-yl]-urea]
6 | 255 to 257 °C | O=C(Nc1ccccc1Cl)Nc1ccc(-c2ccc(F)cc2)cc1-c1nnn[nH]1 [Compound 3-33, N-(2-Chloro-phenyl)-N′-[4′-fluoro-3-(1H-tetrazol-5-yl)-biphenyl-4-yl]-urea]
7 | 200 to 201 °C | COc1ccc(-c2ccc(NC(=O)Nc3cc(Cl)cc(Cl)c3)c(-c3nnn[nH]3)c2)cc1 [Compound 3-34, N-(3,5-Dichloro-phenyl)-N′-[4′-methoxy-3-(1H-tetrazol-5-yl)-biphenyl-4-yl]-urea]
8 | 238 to 241 °C | O=C(Nc1cc(F)cc(F)c1)Nc1ccc(-c2ccc(OC(F)(F)F)cc2)cc1-c1nnn[nH]1 [Compound 3-35, N-(3,5-Difluoro-phenyl)-N′-[3-(1H-tetrazol-5-yl)-4′-trifluoromethoxy-biphenyl-4-yl]-urea]
9 | 224 to 225 °C | O=C(Nc1cc(Cl)cc(Cl)c1)Nc1ccc(-c2ccc(OC(F)(F)F)cc2)cc1-c1nnn[nH]1 [Compound 3-36, N-(3,5-Dichloro-phenyl)-N′-[3-(1H-tetrazol-5-yl)-4′-trifluoromethoxy-biphenyl-4-yl]-urea]
10 | 238 to 240 °C | O=C(Nc1cc(C(F)(F)F)cc(C(F)(F)F)c1)Nc1ccc(-c2ccc(OC(F)(F)F)cc2)cc1-c1nnn[nH]1 [Compound 3-37, N-(3,5-Bis-trifluoromethyl-phenyl)-N′-[3-(1H-tetrazol-5-yl)-4′-trifluoromethoxy-biphenyl-4-yl]-urea]
11 | 255 to 257 °C | O=C(Nc1cc(F)cc(F)c1)Nc1ccc(-c2cccc(C(F)(F)F)c2)cc1-c1nnn[nH]1 [Compound 3-38, N-(3,5-Difluoro-phenyl)-N′-[3-(1H-tetrazol-5-yl)-3′-trifluoromethyl-biphenyl-4-yl]-urea]
12 | 250 to 252 °C | O=C(Nc1cc(C(F)(F)F)cc(C(F)(F)F)c1)Nc1ccc(-c2cccc(C(F)(F)F)c2)cc1-c1nnn[nH]1 [Compound 3-40, N-(3,5-Bis-trifluoromethyl-phenyl)-N′-[3-(1H-tetrazol-5-yl)-3′-trifluoromethyl-biphenyl-4-yl]-urea]
13 | 129 to 133 °C | COc1ccc(-c2ccc(NC(=O)Nc3cc(F)cc(F)c3)c(-c3nnn[nH]3)c2)cc1 [Compound 3-41, N-(3,5-Difluoro-phenyl)-N′-[4′-methoxy-3-(1H-tetrazol-5-yl)-biphenyl-4-yl]-urea]
14 | 219 to 221 °C | COc1ccc(-c2ccc(NC(=O)Nc3cc(C(F)(F)F)cc(C(F)(F)F)c3)c(-c3nnn[nH]3)c2)cc1 [Compound 3-42, N-(3,5-Bis-trifluoromethyl-phenyl)-N′-[4′-methoxy-3-(1H-tetrazol-5-yl)-biphenyl-4-yl]-urea]
